Source: PubChem BioAssay (NCI)
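Dose response: 5 concentrations. Exposure: 48 h. Format: 96-well plates. Endpoint: linear interpolation; highest concentration if not reached. GI50 is the concentration that inhibits growth by half. The concentration for full growth arrest is given as TGI.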

Columns and labels:
Experiment in all cases: NCI-60 cell line screen, 48 h
DU-145 prostate = test system: DU-145 prostate
SK-MEL-2 melanoma = test system: SK-MEL-2 melanoma
OVCAR-5 ovarian = test system: OVCAR-5 ovarian
T-47D breast = test system: T-47D breast
MDA-MB-435 = test system: MDA-MB-435
SK-MEL-28 melanoma = test system: SK-MEL-28 melanoma
OVCAR-4 ovarian = test system: OVCAR-4 ovarian
ACHN renal = test system: ACHN renal
SK-OV-3 ovarian = test system: SK-OV-3 ovarian
MDA-MB-231 breast = test system: MDA-MB-231 breast
A549 NSCLC = test system: A549 NSCLC
MOLT-4 leukemia = test system: MOLT-4 leukemia
SW-620 colon = test system: SW-620 colon
RPMI-8226 leukemia = test system: RPMI-8226 leukemia
NCI-H226 lung = test system: NCI-H226 lung
CCRF-CEM leukemia = test system: CCRF-CEM leukemia
KM12 colon = test system: KM12 colon
HS 578T breast = test system: HS 578T breast
NCI-H460 lung = test system: NCI-H460 lung
HOP-62 NSCLC = test system: HOP-62 NSCLC
MCF7 breast = test system: MCF7 breast
PC-3 prostate = test system: PC-3 prostate
EKVX NSCLC = test system: EKVX NSCLC
OVCAR-3 ovarian = test system: OVCAR-3 ovarian
786-0 renal = test system: 786-0 renal
UACC-62 melanoma = test system: UACC-62 melanoma
SF-295 CNS = test system: SF-295 CNS
SK-MEL-5 melanoma = test system: SK-MEL-5 melanoma
SNB-19 CNS = test system: SNB-19 CNS
SNB-75 CNS = test system: SNB-75 CNS
SR leukemia = test system: SR leukemia
SN12C renal = test system: SN12C renal
CAKI-1 renal = test system: CAKI-1 renal
U251 CNS = test system: U251 CNS
RXF 393 renal = test system: RXF 393 renal
HL-60(TB) leukemia = test system: HL-60(TB) leukemia
NCI/ADR-RES ovarian = test system: NCI/ADR-RES ovarian
NCI-H23 lung = test system: NCI-H23 lung
TK-10 renal = test system: TK-10 renal
BT-549 breast = test system: BT-549 breast
SF-539 CNS = test system: SF-539 CNS
OVCAR-8 ovarian = test system: OVCAR-8 ovarian
NCI-H522 lung = test system: NCI-H522 lung
SF-268 CNS = test system: SF-268 CNS

N=C(N)c1ccc(-c2ccc(-c3ccc(Cl)cc3)s2)nc1
GI50 (DU-145 prostate): 1.7 µM | TGI (DU-145 prostate): 3.07 µM | GI50 (SK-MEL-2 melanoma): 2.21 µM | TGI (SK-MEL-2 melanoma): 4.89 µM | GI50 (OVCAR-5 ovarian): 1.56 µM | TGI (OVCAR-5 ovarian): 2.9 µM | GI50 (T-47D breast): 1.82 µM | TGI (T-47D breast): 4.49 µM | GI50 (MDA-MB-435): 1.65 µM | TGI (MDA-MB-435): 3.02 µM | GI50 (SK-MEL-28 melanoma): 1.62 µM | TGI (SK-MEL-28 melanoma): 2.97 µM | GI50 (OVCAR-4 ovarian): 1.64 µM | TGI (OVCAR-4 ovarian): 3.06 µM | GI50 (ACHN renal): 1.65 µM | TGI (ACHN renal): 3 µM | GI50 (SK-OV-3 ovarian): 3.56 µM | TGI (SK-OV-3 ovarian): 18.1 µM | GI50 (MDA-MB-231 breast): 1.35 µM | TGI (MDA-MB-231 breast): 2.74 µM

CCN(CC)CCC(CNc1c(C)cnc2cc(Cl)ccc12)c1ccc(Cl)cc1 (configuration not stated)
GI50 (A549 NSCLC): 16 µM | TGI (A549 NSCLC): 32.2 µM | GI50 (DU-145 prostate): 12.8 µM | TGI (DU-145 prostate): 26 µM | GI50 (MOLT-4 leukemia): 5.27 µM | TGI (MOLT-4 leukemia): 23.8 µM | GI50 (SK-MEL-2 melanoma): 3.91 µM | TGI (SK-MEL-2 melanoma): 14.1 µM | GI50 (SW-620 colon): 4.91 µM | TGI (SW-620 colon): 19.6 µM | GI50 (RPMI-8226 leukemia): 2.96 µM | TGI (RPMI-8226 leukemia): 13.6 µM | GI50 (NCI-H226 lung): 16 µM | TGI (NCI-H226 lung): 31.5 µM | GI50 (OVCAR-5 ovarian): 8.93 µM | TGI (OVCAR-5 ovarian): 24 µM | GI50 (CCRF-CEM leukemia): 4.32 µM | TGI (CCRF-CEM leukemia): 19.2 µM | GI50 (T-47D breast): 2.57 µM | TGI (T-47D breast): 10.5 µM | GI50 (KM12 colon): 11 µM | TGI (KM12 colon): 25.3 µM | GI50 (HS 578T breast): 12.3 µM | TGI (HS 578T breast): 34.1 µM | GI50 (OVCAR-4 ovarian): 4.17 µM | TGI (OVCAR-4 ovarian): 21.1 µM | GI50 (NCI-H460 lung): 10 µM | TGI (NCI-H460 lung): 25.2 µM | GI50 (HOP-62 NSCLC): 10.6 µM | TGI (HOP-62 NSCLC): 23.8 µM | GI50 (MCF7 breast): 3.27 µM | TGI (MCF7 breast): 16.3 µM | GI50 (PC-3 prostate): 10.7 µM | TGI (PC-3 prostate): 24 µM | GI50 (EKVX NSCLC): 5.46 µM | TGI (EKVX NSCLC): 19.5 µM | GI50 (OVCAR-3 ovarian): 11.9 µM | TGI (OVCAR-3 ovarian): 25.5 µM | GI50 (ACHN renal): 6.47 µM | TGI (ACHN renal): 20.1 µM | GI50 (786-0 renal): 8.53 µM | TGI (786-0 renal): 22.6 µM | GI50 (UACC-62 melanoma): 2.23 µM | TGI (UACC-62 melanoma): 5.16 µM | GI50 (SF-295 CNS): 2.53 µM | TGI (SF-295 CNS): 10.7 µM | GI50 (SK-MEL-5 melanoma): 1.73 µM | TGI (SK-MEL-5 melanoma): 3.18 µM | GI50 (SNB-19 CNS): 11.4 µM | TGI (SNB-19 CNS): 26.8 µM | GI50 (SK-OV-3 ovarian): 15.1 µM | TGI (SK-OV-3 ovarian): 28.9 µM | GI50 (SNB-75 CNS): 5.67 µM | TGI (SNB-75 CNS): 21 µM | GI50 (SR leukemia): 0.0333 µM | TGI (SR leukemia): 7.06 µM | GI50 (SN12C renal): 12.8 µM | TGI (SN12C renal): 28.8 µM | GI50 (CAKI-1 renal): 3.51 µM | TGI (CAKI-1 renal): 16.8 µM | GI50 (U251 CNS): 3.83 µM | TGI (U251 CNS): 13.2 µM | GI50 (RXF 393 renal): 4.39 µM | TGI (RXF 393 renal): 18.4 µM | GI50 (HL-60(TB) leukemia): 4.45 µM | TGI (HL-60(TB) leukemia): 26.9 µM | GI50 (NCI/ADR-RES ovarian): 10.2 µM | TGI (NCI/ADR-RES ovarian): 23.5 µM | GI50 (NCI-H23 lung): 10.3 µM | TGI (NCI-H23 lung): 24.1 µM | GI50 (TK-10 renal): 10.9 µM | TGI (TK-10 renal): 23.8 µM | GI50 (BT-549 breast): 11.2 µM | TGI (BT-549 breast): 24.9 µM | GI50 (SF-539 CNS): 1.63 µM | TGI (SF-539 CNS): 3.31 µM | GI50 (OVCAR-8 ovarian): 10.8 µM | TGI (OVCAR-8 ovarian): 25.5 µM | GI50 (NCI-H522 lung): 4.43 µM | TGI (NCI-H522 lung): 17.3 µM | GI50 (SF-268 CNS): 11.1 µM | TGI (SF-268 CNS): 26.1 µM
